Laboratory results as given in patent publication US8076363B2, “Isothiazolone-containing preservative with improved effectiveness” (Air Liquide Sante (International), priority 2005, dated 2011).

Key:
[1] = tested on: mixed suspension of test germs (bacteria, yeasts, fungi); assay: Preserving effect under repeated inoculation in humectant formulation 6940; format: cell-based; set-up: key: −=no growth; ++=moderate growth; +++=massive growth
Method: B) Humectant Formulation 6940
In accordance with Seppic formulation procedure, without preservative.
Using the described method, the effectiveness of chemical preservatives is tested with regard to the pack preservation for cosmetic formulations. For this purpose, in various experimental batches, the preservatives to be investigated are added to the unpreserved samples in various concentrations. A continuous germ burden is achieved by periodically inoculating the experimental batches. In parallel to the inoculation, streaks of each of the individual batches are in each case made immediately beforehand. Assessment is made by reference to the microbial growth of the streaks.
The bacteria are streaked uniformly over the entire surface of a CS nutrient medium using a sterile glass rod and incubated for 24 h at 30±1° C. The yeast C. albicans is streaked using a sterile glass rod on a Sabouraud nutrient medium and incubated for 48 h at 30±1° C.
The fungi A. niger and P. funiculosum are streaked using a sterile glass rod on one (A. niger) or two (P. funiculosum) Sabouraud plates (comprising 100 μg/ml of gentamycin and 50 μg/ml of chloramphenicol) and incubated for 7 to 14 days at 25±2° C.
To prepare the mixed suspensions, the bacteria, per strain one plate, are rinsed off with 5 ml of a sterile 0.85% NaCl solution per CSA plate, (sterile) filtered through a sterile glass funnel containing glass wool and made up to 150 ml with 0.85% NaCl solution. This bacteria suspension has a titre of ˜10^10 CFU/ml.
The yeast C. albicans is likewise rinsed off with 10 ml of sterile 0.85% NaCl solution from a Sabouraud plate and (sterile) filtered through a sterile glass funnel containing glass wool. 10 ml of each of the fungi suspensions (A. niger and P. funiculosum) prepared as described above are added to this suspension. 3 ml of the bacteria suspension prepared as described above (titre ˜10^10 CFU/ml) are added. The resulting mixed suspension is made to 150 ml with sterile 0.85% NaCl solution.
The bacteria titre of the mixed suspension is ˜10^8 CFU/ml. The titre for C. albicans in the mixed suspension is ˜10^8 CFU/ml. The titre for A. niger and P. funiculosum in the mixed suspension is ˜10^6 CFU/ml.
In separate batches, 25 or 50 g of the material to be preserved are in each case admixed with varying concentrations of the preservative to be investigated. The growth control used in each case is an unpreserved product sample.
The test batches are streaked onto CS and Sabouraud nutrient media once per week, the first streaking being carried out directly prior to reinoculation; these batches are then inoculated with the mixed suspension (in the case of 25 g samples with 0.1 ml, in the case of 50 g samples with 0.2 ml). The inoculated samples are incubated at 25° C.±2° C. over the entire experimentation period.
The microbial growth of the streaks incubated at 25° C.±2° C. is assessed after 3 to 4 days. To be on the safe side, negative streaks are observed for a further 2 days and reassessed. The preserving effect of the individual product concentrations is assessed in a semiquantitative method by means of the growth of the individual streaks according to the grading from “−” via “+” to “+++”. The test is usually carried out over 6 inoculation cycles or terminated after massive growth (+++) on two occasions.
If even after five successive inoculation cycles growth can be detected neither in the preserved samples nor in the unpreserved product sample (blank value), then the inoculation in the sixth inoculation cycle is carried out with five times the amount of the mixed suspension (0.5 ml in the case of 25 g samples, 1 ml in the case of 50 g samples).
A preservative is considered good if it exists under the laboratory conditions given above for a period of 6 weeks without germ infestation of the sample batches, i.e. even after the sixth inoculation, no microbial growth can be detected.

[2] = tested on: mixed suspension of test germs (bacteria, yeasts, fungi); assay: Preserving effect under repeated inoculation in the standard gel; format: cell-based; set-up: key: −=no growth; −=slight growth; ++=moderate growth; +++=massive growth; conditions: preservative 0.1%
Method: CARBOPOL is dispersed in glycerol. In batches, the water and then NaOH are added thereto. The gel immediately becomes thick.
Using the described method, the effectiveness of chemical preservatives is tested with regard to the pack preservation for cosmetic formulations. For this purpose, in various experimental batches, the preservatives to be investigated are added to the unpreserved samples in various concentrations. A continuous germ burden is achieved by periodically inoculating the experimental batches. In parallel to the inoculation, streaks of each of the individual batches are in each case made immediately beforehand. Assessment is made by reference to the microbial growth of the streaks. […]
The microbial growth of the streaks incubated at 25° C.±2° C. is assessed after 3 to 4 days. […] The preserving effect of the individual product concentrations is assessed in a semiquantitative method by means of the growth of the individual streaks according to the grading from “−” via “+” to “+++”. […]
If even after five successive inoculation cycles growth can be detected neither in the preserved samples nor in the unpreserved product sample (blank value), then the inoculation in the sixth inoculation cycle is carried out with five times the amount of the mixed suspension (0.5 ml in the case of 25 g samples, 1 ml in the case of 50 g samples). […]

CCCCC(CC)COCC(O)CO (centres unmarked) [SENSIVA, 1-(2-ethylhexyl) glycerol ether]
microbial growth of the streaks ([1]; formulation 6940, preservative 0.1%, 4 days): − | microbial growth of the streaks ([1]; formulation 6940, preservative 0.1%, 10 days): +++ | microbial growth of the streaks ([1]; formulation 6940, preservative 0.1%, 17 days): +++ | microbial growth of the streaks ([1]; formulation 6940, preservative 0.2%, 4 days): − | microbial growth of the streaks ([1]; formulation 6940, preservative 0.2%, 10 days): +++ | microbial growth of the streaks ([1]; formulation 6940, preservative 0.2%, 17 days): +++ | microbial growth of the streaks ([1]; formulation 6940, preservative 0.3%, 4 days): − | microbial growth of the streaks ([1]; formulation 6940, preservative 0.3%, 10 days): +++ | microbial growth of the streaks ([1]; formulation 6940, preservative 0.3%, 17 days): +++ | microbial growth of the streaks ([2]; 10 days): +++ | microbial growth of the streaks ([2]; 17 days): +++
